Source: patent publication US20210179600A1, “OXAZOLE AND THIAZOLE DERIVATIVES AS INHIBITORS OF ASK1” (Hepagene Therapeutics (HK) Limited, priority 2017, published 2021)

Molecular target: T1, Recombinant human ASK1 kinase (Homo sapiens, UniProt Q99683)
T1 construct: purchased Invitrogen Inc
T1 sequence (Q99683 1-1374): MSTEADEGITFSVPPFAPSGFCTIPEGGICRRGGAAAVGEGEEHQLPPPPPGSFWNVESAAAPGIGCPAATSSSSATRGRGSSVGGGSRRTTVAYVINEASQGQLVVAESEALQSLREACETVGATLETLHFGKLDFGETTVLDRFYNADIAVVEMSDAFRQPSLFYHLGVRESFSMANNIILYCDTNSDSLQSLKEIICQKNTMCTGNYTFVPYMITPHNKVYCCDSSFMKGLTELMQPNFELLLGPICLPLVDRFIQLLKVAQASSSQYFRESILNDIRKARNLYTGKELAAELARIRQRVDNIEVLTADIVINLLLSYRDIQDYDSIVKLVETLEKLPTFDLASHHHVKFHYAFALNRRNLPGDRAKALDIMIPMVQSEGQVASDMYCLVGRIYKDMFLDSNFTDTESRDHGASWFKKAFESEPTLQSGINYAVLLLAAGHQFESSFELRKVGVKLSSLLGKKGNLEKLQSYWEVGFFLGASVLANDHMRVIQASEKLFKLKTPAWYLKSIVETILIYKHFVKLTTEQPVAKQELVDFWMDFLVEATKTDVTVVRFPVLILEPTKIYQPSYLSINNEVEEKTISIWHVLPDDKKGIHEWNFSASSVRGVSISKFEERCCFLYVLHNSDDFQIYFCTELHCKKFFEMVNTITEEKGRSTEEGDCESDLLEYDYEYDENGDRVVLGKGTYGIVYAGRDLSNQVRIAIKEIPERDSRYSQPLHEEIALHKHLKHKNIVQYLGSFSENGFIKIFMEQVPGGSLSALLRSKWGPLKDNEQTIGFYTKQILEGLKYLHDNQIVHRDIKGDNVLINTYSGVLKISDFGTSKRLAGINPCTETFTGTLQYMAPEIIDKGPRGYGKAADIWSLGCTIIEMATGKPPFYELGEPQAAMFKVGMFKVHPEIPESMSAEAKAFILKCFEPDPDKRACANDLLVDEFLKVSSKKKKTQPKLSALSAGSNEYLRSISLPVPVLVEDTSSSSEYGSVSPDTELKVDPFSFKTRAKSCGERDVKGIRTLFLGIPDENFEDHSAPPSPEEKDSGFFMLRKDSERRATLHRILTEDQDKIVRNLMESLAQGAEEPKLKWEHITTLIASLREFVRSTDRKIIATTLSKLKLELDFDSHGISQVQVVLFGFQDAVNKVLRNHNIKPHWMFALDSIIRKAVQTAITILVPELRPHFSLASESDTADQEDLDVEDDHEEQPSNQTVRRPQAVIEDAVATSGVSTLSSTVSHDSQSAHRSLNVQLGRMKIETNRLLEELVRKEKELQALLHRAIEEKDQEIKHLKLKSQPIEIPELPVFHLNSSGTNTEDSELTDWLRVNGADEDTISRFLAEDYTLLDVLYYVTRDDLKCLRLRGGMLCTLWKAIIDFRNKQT
Test: ASK1 kinase HTRF assay (KinEASE-STK)
Assay type: biochemical
Conditions: HTRF detection; 3 nM ASK1 kinase, 1 uM STK-substrate-biotin
Protocol: Reagents: Recombinant human ASK1 kinase was from Invitrogen Inc. HTRF KinEASE™-STK S3 kit was obtained from Cisbio (Bedford, Mass.). All other reagents were of the highest grade commercially available.
Assay: The assay measures the phosphorylation level of a biotinylatd peptide substrate by the ASK1 kinase using HTRF detection. ASK1 kinase assay is based on HTRF KinEASE™-STK manual from Cisbio. Test compound, 1 uM STK-substrate-biotin, 3 nM of ASK1 kinase are incubated with 1*Kinase buffer with 5 mM MgCl2 and 1 mM DTT. 250 nM Sa-XL 665(4*) and STK-antibody-Cryptate work solution are added to stop the reaction and phosphorylated peptide substrate is detected using Envision 2104 Multilabeled reader from PerkinElmer. The fluorescence is measured at 615 nm (Cryptate) and 665 nm (XL665) and a ratio of 665 nm/615 nm is calculated for each well. The resulting TR-FRET level (a ratio of 665 nm/615 nm) is proportional to the phosphorylation level of substrate.

Row | SMILES | EC50 [µM]
1 | CC(C)N1CCN(c2cccc(-c3cnc(-c4cccc(-c5nncn5C(C)C)n4)o3)c2)CC1 [Compound I-117] | ≤ 0.05
2 | CC(C)n1cnnc1-c1cccc(-c2ncc(-c3cccc(N4CCN(C5CC5)CC4)c3)o2)n1 [Compound I-118] | ≤ 0.05
3 | CC(C)n1cnnc1-c1cccc(-c2ncc(-c3cccc(N4CCN(S(C)(=O)=O)CC4)c3)o2)n1 [Compound I-119] | ≤ 0.05
4 | CC(C)n1cnnc1-c1cccc(-c2ncc(-c3cccc(N4CCCCC4)c3)o2)n1 [Compound I-120] | 0.05 to 0.5
5 | CC(C)n1cnnc1-c1cccc(-c2ncc(-c3cccc(N4C5CCCC4CC5)c3)o2)n1 [Compound I-121] | 0.05 to 0.5
6 | CC(C)n1cnnc1-c1cccc(-c2ncc(-c3cccc(N4CCC(N5CCOCC5)CC4)c3)o2)n1 [Compound I-122] | 0.05 to 0.5
7 | CC(C)n1cnnc1-c1cccc(-c2ncc(-c3cccc(C4CCNCC4)c3)o2)n1 [Compound I-123] | ≤ 0.05
8 | CC(C)n1cnnc1-c1cccc(-c2ncc(-c3cccc(C4=CCN(C(=O)OC(C)(C)C)C4)c3)o2)n1 [Compound I-124] | 0.05 to 0.5
9 | CC(C)n1cnnc1-c1cccc(-c2ncc(-c3cccc(N4CCCC4)c3)o2)n1 [Compound I-125] | ≤ 0.05
10 | C[C@H](CO)n1cnnc1-c1cccc(-c2ncc(-c3cccc(N4CCCC4)c3)o2)n1 [Compound I-126] | ≤ 0.05
11 | CC(C)n1cnnc1-c1cccc(-c2ncc(-c3cccc(N4CCC(N)C4)c3)o2)n1 (stereo not shown) [Compound I-127] | ≤ 0.05
12 | CC(C)n1cnnc1-c1cccc(-c2ncc(-c3cccc(N4CCC(NC(=O)OC(C)(C)C)C4)c3)o2)n1 (stereo not shown) [Compound I-128] | ≤ 0.05
13 | C[C@H](CO)n1cnnc1-c1cccc(-c2ncc(-c3cccc(C4CCCCC4)c3)o2)n1 [Compound I-129] | ≤ 0.05
14 | C[C@H](CO)n1cnnc1-c1cccc(-c2ncc(-c3cccc(C4=CCCCC4)c3)o2)n1 [Compound I-130] | 0.05 to 0.5
15 | CC(C)n1cnnc1-c1cccc(-c2ncc(-c3cccc(C4CCCCC4)c3)o2)n1 [Compound I-131] | 0.5 to 5
16 | CC(C)n1cnnc1-c1cccc(-c2ncc(-c3cccc(C4=CCCCC4)c3)o2)n1 [Compound I-132] | 0.05 to 0.5
17 | CC(C)n1cnnc1-c1cccc(-c2ncc(-c3cccc(C4CCCC4)c3)o2)n1 [Compound I-133] | 0.05 to 0.5

The remaining lines, values ahead:

Row | EC50 [µM] | SMILES
18 | 0.05 to 0.5 | CC(C)n1cnnc1-c1cccc(-c2ncc(-c3cccc(C4=CCCC4)c3)o2)n1 [Compound I-134]
19 | ≤ 0.05 | C[C@H](CO)n1cnnc1-c1cccc(-c2ncc(-c3cccc(C4CCCC4)c3)o2)n1 [Compound I-135]
20 | ≤ 0.05 | C[C@H](CO)n1cnnc1-c1cccc(-c2ncc(-c3cccc(C4=CCCC4)c3)o2)n1 [Compound I-136]
21 | 0.05 to 0.5 | CC(C)n1cnnc1-c1cccc(-c2ncc(-c3cccc(C4=CCCCCC4)c3)o2)n1 [Compound I-138]
22 | 0.05 to 0.5 | CC(C)n1cnnc1-c1cccc(-c2ncc(-c3nccs3)o2)n1 [Compound I-141]
23 | 0.05 to 0.5 | CC(C)n1cnnc1-c1cccc(-c2ncc(-c3nc4ccccc4o3)o2)n1 [Compound I-142]
24 | ≤ 0.05 | CC(C)n1cnnc1-c1cccc(-c2ncc(-c3cccc(-n4cnc(C5CC5)c4)c3)o2)n1 [Compound I-144]
25 | 0.05 to 0.5 | CC(C)n1cnnc1-c1cc(-c2ncc(-c3ccccc3)o2)cs1 [II-01, 3-[4-(5-Phenyl-1,3-oxazol-2-yl)thiophen-2-yl]-4-(propan-2-yl)-4H-1,2,4-triazole]
